# pEC50: −log10 of the molar value. Several values for one entry are separate records, joined by “and”; a condition that tells them apart may be missing. Identical values can stand only once.
# What was measured:
# [1] = system: pandemic H1N1 A/Lux/46/2009; format: cell-based, influenza A virus
# [2] = system: H1N1 A/Puerto Rico/8/34-NS116-GFP; experiment: Antiviral effect against GFP reporter virus on A549 cells; conditions: for SI (CC50/EC50): CC50 A549 XTT / EC50 reporter virus
# in vitro = conditions: human
# [3] = Tannin depletion with hide powder, phenols by Folin-Ciocalteu; conditions: pyrogallol equivalents normalized to untreated sample
# [4] = XTT cytotoxicity assay on A549 cells; conditions: human
# [5] = Influenza A virus, H1N1, A549, 24 h
SMILES,Lower viral titer after virus preincubation [1],SI (CC50/EC50) [2],"EC50 [2, 5]",CC50 at 24 h (in vitro),Remaining phenol content after hide powder treatment [3],CC50 at 24 h [4],"pEC50 [2, 5]",SI (CC50/EC50) ([2]; listed as pentagalloylglucose)
"O=C(O[C@@H]1Cc2c(O)cc(O)cc2O[C@@H]1c1cc(O)c(O)c(O)c1)c1cc(O)c(O)c(O)c1 [EGCG, (−)-epigallocatechin gallate]",~7 fold,85,12.1 µM and 5.6 µg/mL,1.03 mM and 472 µg/mL,intermediate reduction,–,–,–
"O=C(O)c1cc(O)c(O)c(O)c1 [Gallic acid, Gallic acid monohydrate]",–,–,50.8 µM and 9.6 µg/mL,–,89 % of untreated,770 µM and 145 µg/mL,–,–
"O=C(OC[C@H]1OC(O)[C@@](O)(COC(=O)c2cc(O)c(O)c(O)c2)[C@@H]1O)c1cc(O)c(O)c(O)c1 (some centres unmarked) [Hamamelitannin, hamamelitannin]",–,–,–,–,–,–,< 2.00,–
"O=C(OC[C@H]1O[C@@H](OC(=O)c2cc(O)c(O)c(O)c2)[C@H](OC(=O)c2cc(O)c(O)c(O)c2)[C@@H](OC(=O)c2cc(O)c(O)c(O)c2)[C@@H]1OC(=O)c1cc(O)c(O)c(O)c1)c1cc(O)c(O)c(O)c1 [Pentagalloylglucose, penta-O-galloyl-β-D-glucose]",–,40.0,19.5 µM and 18.3 µg/mL,–,–,779 µM and 733 µg/mL,–,40
"O=C(OC[C@H]1O[C@@H](OC(=O)c2cc(O)c(O)c(OC(=O)c3cc(O)c(O)c(O)c3)c2)[C@H](OC(=O)c2cc(O)c(O)c(OC(=O)c3cc(O)c(O)c(O)c3)c2)[C@@H](OC(=O)c2cc(O)c(O)c(OC(=O)c3cc(O)c(O)c(O)c3)c2)[C@@H]1OC(=O)c1cc(O)c(O)c(OC(=O)c2cc(O)c(O)c(O)c2)c1)c1cc(O)c(O)c(OC(=O)c2cc(O)c(O)c(O)c2)c1 [Tannic acid, tannic acid]",–,30.7,–,–,–,–,–,–
